Test results taken from patent US20260028354A1, “TETRAHYDRONAPHTHALENE DERIVATIVES AS ESTROGEN RECEPTOR DEGRADERS” (REGENT OF THE UNIVERSITY OF MICHIGAN, priority 2022, published 2026).

assay: Western blot analysis for "B" compounds; type: cell-based; conditions: read-out: Traditional Western Degradation Potency (DC50)
Method in brief: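 Compound-treated cells lysed in RIPA buffer with protease inhibitors; equal protein (BCA) run on 10% SDS-PAGE, transferred to PVDF and probed with target antibodies. Band intensities quantified by densitometry and normalized to GAPDH.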

Compound	DC50 [nM]
O=C1CCC(N2C(=O)c3cc4c(cc3C2=O)CN(CC(=O)N2CCC3(CC2)CCN(c2cnc([C@H]5c6ccc(O)cc6CC[C@H]5c5ccccc5)cn2)CC3)C4)C(=O)N1 (mixture of isomers) [Compound B85, 2-(2,6-dioxopiperidin-3-yl)-6-(2-(9-(5-((1R,2R)-6-hydroxy-2-phenyl-1,2,3,4-tetrahydronaphthalen-1-yl)pyrazin-2-yl)-3,9-diazaspiro[5.5]undecan-3-yl)-2-oxoethyl)-6,7-dihydropyrrolo[3,4-f]isoindole-1,3(2H,5H)-dione]	> 100
O=C1CCC(N2C(=O)c3cc4c(cc3C2=O)CN(CC(=O)N2CCC3(CC2)CCN(c2ccc([C@H]5c6ccc(O)cc6CC[C@H]5c5ccccc5)nc2)CC3)C4)C(=O)N1 (mixture of isomers) [Compound B86, 2-(2,6-dioxopiperidin-3-yl)-6-(2-(9-(6-((1R,2R)-6-hydroxy-2-phenyl-1,2,3,4-tetrahydronaphthalen-1-yl)pyridin-3-yl)-3,9-diazaspiro[5.5]undecan-3-yl)-2-oxoethyl)-6,7-dihydropyrrolo[3,4-f]isoindole-1,3(2H,5H)-dione]	> 100
O=C1CCC(N2Cc3cc4c(cc3C2=O)CN(CC(=O)N2CCC3(CCN(c5ccc([C@@H]6c7ccc(O)cc7CC[C@@H]6c6ccccc6)cc5)CC3)C2)C4)C(=O)N1 (mixture of isomers) [Compound B182, 3-(6-(2-(8-(4-((1R,2S)-6-hydroxy-2-phenyl-1,2,3,4-tetrahydronaphthalen-1-yl)phenyl)-2,8-diazaspiro[4.5]decan-2-yl)-2-oxoethyl)-1-oxo-3,5,6,7-tetrahydropyrrolo[3,4-f]isoindol-2(1H)-yl)piperidine-2,6-dione]	10 to 100
O=C1CCC(N2Cc3cc4c(cc3C2=O)CN(CC(=O)N2CCC3(CC2)CN(c2ccc([C@@H]5c6ccc(O)cc6CC[C@@H]5c5ccccc5)cc2)C3)C4)C(=O)N1 (mixture of isomers) [Compound B183, 3-(6-(2-(2-(4-((1R,2S)-6-hydroxy-2-phenyl-1,2,3,4-tetrahydronaphthalen-1-yl)phenyl)-2,7-diazaspiro[3.5]nonan-7-yl)-2-oxoethyl)-1-oxo-3,5,6,7-tetrahydropyrrolo[3,4-f]isoindol-2(1H)-yl)piperidine-2,6-dione]	< 10
O=C1CCC(N2Cc3cc4c(cc3C2=O)CN(CC(=O)N2CCC3(C2)CN(c2ccc([C@@H]5c6ccc(O)cc6CC[C@@H]5c5ccccc5)cc2)C3)C4)C(=O)N1 (mixture of isomers) [Compound B184, 3-(6-(2-(2-(4-((1R,2S)-6-hydroxy-2-phenyl-1,2,3,4-tetrahydronaphthalen-1-yl)phenyl)-2,6-diazaspiro[3.4]octan-6-yl)-2-oxoethyl)-1-oxo-3,5,6,7-tetrahydropyrrolo[3,4-f]isoindol-2(1H)-yl)piperidine-2,6-dione]	< 10
O=C1CCC(N2C(=O)c3cc4c(cc3C2=O)CN(CC(=O)N2CC3(C2)CN(c2ccc([C@@H]5c6ccc(O)cc6CC[C@@H]5c5ccc(F)cc5)cc2)C3)C4)C(=O)N1 (mixture of isomers) [Compound B188, 2-(2,6-dioxopipcridin-3-yl)-6-(2-(6-(4-((1R,2S)-2-(4-fluorophenyl)-6-hydroxy-1,2,3,4-tetrahydronaphthalen-1-yl)phenyl)-2,6-diazaspiro[3.3]heptan-2-yl)-2-oxoethyl)-6,7-dihydropyrrolo[3,4-f]isoindole-1,3(2H,5H)-dione]	10 to 100
O=C1CCC(N2C(=O)c3cc4c(cc3C2=O)CN(CC(=O)N2CCC3(CC2)CCN(c2ccc([C@@H]5c6ccc(O)cc6CC[C@@H]5c5ccc(F)cc5)cc2)CC3)CC4)C(=O)N1 (mixture of isomers) [Compound B193, 2-(2,6-dioxopiperidin-3-yl)-6-(2-(9-(4-((1R,2S)-2-(4-fluorophenyl)-6-hydroxy-1,2,3,4-tetrahydronaphthalen-1-yl)phenyl)-3,9-diazaspiro[5.5]undecan-3-yl)-2-oxoethyl)-5,6,7,8-tetrahydro-1H-pyrrolo[3,4-g]isoquinoline-1,3(2H)-dione]	10 to 100
O=C1CCC(N2C(=O)c3cc4c(cc3C2=O)CN(CCN2CCC3(CC2)CN(c2ccc([C@@H]5c6ccc(O)cc6CC[C@@H]5c5ccccc5)cc2)C3)C4)C(=O)N1 (mixture of isomers) [Compound B196, 2-(2,6-dioxopiperidin-3-yl)-6-(2-(2-(4-((1R,2S)-6-hydroxy-2-phenyl-1,2,3,4-tetrahydronaphthalen-1-yl)phenyl)-2,7-diazaspiro[3.5]nonan-7-yl)ethyl)-6,7-dihydropyrrolo[3,4-f]isoindole-1,3(2H,5H)-dione]	10 to 100
O=C1CCC(N2C(=O)c3cc4c(cc3C2=O)CN(CCN2CCC3(CC2)CCN(c2ccc([C@@H]5c6ccc(O)cc6CC[C@@H]5c5ccccc5)cc2)CC3)C4)C(=O)N1 (mixture of isomers) [Compound B198, 2-(2,6-dioxopiperidin-3-yl)-6-(2-(9-(4-((1R,2S)-6-hydroxy-2-phenyl-1,2,3,4-tetrahydronaphthalen-1-yl)phenyl)-3,9-diazaspiro[5.5]undecan-3-yl)ethyl)-6,7-dihydropyrrolo[3,4-f]isoindole-1,3(2H,5H)-dione]	10 to 100
O=C1CCC(N2C(=O)c3cc4c(cc3C2=O)CN(CC(=O)N2CCC3(CC2)CN(c2ccc([C@@H]5c6ccc(O)cc6CC[C@@H]5c5ccc(F)cc5Cl)cc2)C3)C4)C(=O)N1 (mixture of isomers) [Compound B259, 6-(2-(2-(4-((1R,2S)-2-(2-chloro-4-fluorophenyl)-6-hydroxy-1,2,3,4-tetrahydronaphthalen-1-yl)phenyl)-2,7-diazaspiro[3.5]nonan-7-yl)-2-oxoethyl)-2-(2,6-dioxopiperidin-3-yl)-6,7-dihydropyrrolo[3,4-f]isoindole-1,3(2H,5H)-dione]	10 to 100

Next, values leading:

DC50 [nM]	Compound
10 to 100	O=C1CCC(N2C(=O)c3cc4c(cc3C2=O)CN(CC(=O)N2CCC3(CCN(c5ccc([C@@H]6c7ccc(O)cc7CC[C@@H]6c6ccccc6)cc5)CC3)C2)C4)C(=O)N1 (mixture of isomers) [Compound B185, 2-(2,6-dioxopiperidin-3-yl)-6-(2-(8-(4-((1R,2S)-6-hydroxy-2-phenyl-1,2,3,4-tetrahydronaphthalen-1-yl)phenyl)-2,8-diazaspiro[4.5]decan-2-yl)-2-oxoethyl)-6,7-dihydropyrrolo[3,4-f]isoindole-1,3(2H,5H)-dione]
10 to 100	O=C1CCC(N2C(=O)c3cc4c(cc3C2=O)CN(CC(=O)N2CCC3(CC2)CN(c2ccc([C@@H]5c6ccc(O)cc6CC[C@@H]5c5ccccc5)cc2)C3)C4)C(=O)N1 (mixture of isomers) [Compound B186, 2-(2,6-dioxopiperidin-3-yl)-6-(2-(2-(4-((1R,2S)-6-hydroxy-2-phenyl-1,2,3,4-tetrahydronaphthalen-1-yl)phenyl)-2,7-diazaspiro[3.5]nonan-7-yl)-2-oxoethyl)-6,7-dihydropyrrolo[3,4-f]isoindole-1,3(2H,5H)-dione]
10 to 100	O=C1CCC(N2C(=O)c3cc4c(cc3C2=O)CN(CC(=O)N2CCC3(C2)CN(c2ccc([C@@H]5c6ccc(O)cc6CC[C@@H]5c5ccccc5)cc2)C3)C4)C(=O)N1 (mixture of isomers) [Compound B187, 2-(2,6-dioxopiperidin-3-yl)-6-(2-(2-(4-((1R,2S)-6-hydroxy-2-phenyl-1,2,3,4-tetrahydronaphthalen-1-yl)phenyl)-2,6-diazaspiro[3.4]octan-6-yl)-2-oxoethyl)-6,7-dihydropyrrolo[3,4-f]isoindole-1,3(2H,5H)-dione]
> 100	O=C1CCC(N2C(=O)c3cc4c(cc3C2=O)CN(C(=O)CN2CCC3(CC2)CCN(c2ccc([C@@H]5c6ccc(O)cc6CC[C@@H]5c5ccccc5)cc2)CC3)CC4)C(=O)N1 (mixture of isomers) [Compound B190, 2-(2,6-dioxopiperidin-3-yl)-6-(2-(9-(4-((1R,2S)-6-hydroxy-2-phenyl-1,2,3,4-tetrahydronaphthalen-1-yl)phenyl)-3,9-diazaspiro[5.5]undecan-3-yl)acetyl)-5,6,7,8-tetrahydro-1H-pyrrolo[3,4-g]isoquinoline-1,3(2H)-dione]
10 to 100	O=C1CCC(N2C(=O)c3cc4c(cc3C2=O)CN(CC(=O)N2CCC3(CC2)CCN(c2ccc([C@@H]5c6ccc(O)cc6CC[C@@H]5c5ccccc5)cc2)CC3)CC4)C(=O)N1 (mixture of isomers) [Compound B191, 2-(2,6-dioxopiperidin-3-yl)-6-(2-(9-(4-((1R,2S)-6-hydroxy-2-phenyl-1,2,3,4-tetrahydronaphthalen-1-yl)phenyl)-3,9-diazaspiro[5.5]undecan-3-yl)-2-oxoethyl)-5,6,7,8-tetrahydro-1H-pyrrolo[3,4-g]isoquinoline-1,3(2H)-dione]
10 to 100	O=C1CCC(N2C(=O)c3cc4c(cc3C2=O)CN(CC(=O)N2CC3(CCN(c5ccc([C@@H]6c7ccc(O)cc7CC[C@@H]6c6ccccc6)cc5)CC3)C2)CC4)C(=O)N1 (mixture of isomers) [Compound B192, 2-(2,6-dioxopiperidin-3-yl)-6-(2-(7-(4-((1R,2S)-6-hydroxy-2-phenyl-1,2,3,4-tetrahydronaphthalen-1-yl)phenyl)-2,7-diazaspiro[3.5]nonan-2-yl)-2-oxoethyl)-5,6,7,8-tetrahydro-1H-pyrrolo[3,4-g]isoquinoline-1,3(2H)-dione]
10 to 100	O=C1CCC(N2C(=O)c3cc4c(cc3C2=O)CN(CCN2CC3(CCN(c5ccc([C@@H]6c7ccc(O)cc7CC[C@@H]6c6ccccc6)cc5)CC3)C2)C4)C(=O)N1 (mixture of isomers) [Compound B197, 2-(2,6-dioxopiperidin-3-yl)-6-(2-(7-(4-((1R,2S)-6-hydroxy-2-phenyl-1,2,3,4-tetrahydronaphthalen-1-yl)phenyl)-2,7-diazaspiro[3.5]nonan-2-yl)ethyl)-6,7-dihydropyrrolo[3,4-f]isoindole-1,3(2H,5H)-dione]
> 100	O=C1CCC(N2C(=O)c3cc4c(cc3C2=O)CN(C(=O)CN2CC3(CCN(c5ccc([C@@H]6c7ccc(O)cc7CC[C@@H]6c6ccccc6)cc5)CC3)C2)CCC4)C(=O)N1 (mixture of isomers) [Compound B260, 2-(2,6-dioxopiperidin-3-yl)-6-(2-(7-(4-((1R,2S)-6-hydroxy-2-phenyl-1,2,3,4-tetrahydronaphthalen-1-yl)phenyl)-2,7-diazaspiro[3.5]nonan-2-yl)acetyl)-6,7,8,9-tetrahydroazepino[3,4-f]isoindole-1,3(2H,5H)-dione]
